The values below come from patent publication US20210205196A1, “PRESERVED COMPOSITIONS” (Conopco, Inc., d/b/a UNILEVER, priority 2018, published 2021).

The subject of assay [1] is Gram Negative non-fermenting bacteria: Pseudomonas aeruginosa, Burkholderia cepacia, Strenotrophomonas sp. The assay can be described thus: Modified Ph. Eur. 5.1.3 microbial challenge test in shampoo, Pool 1. It counts as cell-based.
Assay [2] concerns Gram Negative fermenting bacteria: Enterobacter cloacae, Klebsiella sp. Kind of assay: Modified Ph. Eur. 5.1.3 microbial challenge test in shampoo, Pool 2. The format is cell-based.
Where [3] appears, read: 0.5% (w/w) acid in shampoo base, pH 5, 7 days.
The mark [4] stands for this setting: 0.5% (w/w) acid in shampoo base, pH 5, 14 days (reinoculated at 7 days).
The mark [5] stands for this setting: 0.5% (w/w) acid in shampoo base, pH 5, 21 days (reinoculated at 7 and 14 days).
The mark [6] stands for this setting: 0.5% (w/w) acid in shampoo base, pH 5, 28 days (reinoculated at 7 and 14 days).
The mark [7] stands for this setting: 1.0% (w/w) acid in shampoo base, pH 5, 7 days.
Where [8] appears, read: 1.0% (w/w) acid in shampoo base, pH 5, 14 days (reinoculated at 7 days).
The mark [9] stands for this setting: 1.0% (w/w) acid in shampoo base, pH 5, 21 days (reinoculated at 7 and 14 days).
The mark [10] stands for this setting: 1.0% (w/w) acid in shampoo base, pH 5, 28 days (reinoculated at 7 and 14 days).

Some results are limits rather than exact numbers.

Consider `O=C(O)CC(O)(CC(=O)O)C(=O)O` [Citric acid, citric acid], for which the “Microbial Log reduction” value in assay [1] (setting [3]) is on record as over 5.61 log; in assay [1] (setting [4]), 3.84 log; in assay [1] (setting [5]) it was over 5.74 log; in assay [1] (setting [6]) it was over 5.74 log; in assay [1] (setting [7]) it was over 5.61 log; in assay [1] (setting [8]) it was over 5.56 log. In addition, the “Microbial Log reduction” value is on record as over 5.74 log in assay [1] (setting [9]); over 5.74 log in assay [1] (setting [10]); 4.88 log in assay [2] (setting [3]); over 5.69 log in assay [2] (setting [4]); over 5.80 log in assay [2] (setting [5]); over 5.80 log in assay [2] (setting [6]). For the same molecule, the “Microbial Log reduction” value is listed as 4.97 log in assay [2] (setting [7]), over 5.69 log in assay [2] (setting [8]), over 5.80 log in assay [2] (setting [9]) and over 5.80 log in assay [2] (setting [10]).
On to `C=C(CC(=O)O)C(=O)O` [Itaconic acid], for which the “Microbial Log reduction” value in assay [1] (setting [3]) was over 5.68 log; in assay [1] (setting [4]), over 5.56 log; in assay [1] (setting [5]) it was over 5.74 log; in assay [1] (setting [6]), over 5.74 log; in assay [1] (setting [7]), over 5.61 log; in assay [1] (setting [8]) it was over 5.56 log. Further, the “Microbial Log reduction” value in assay [1] (setting [9]) is on record as over 5.74 log; in assay [1] (setting [10]) it was over 5.74 log; in assay [2] (setting [3]), over 5.88 log; in assay [2] (setting [4]), over 5.69 log; in assay [2] (setting [5]) it was over 5.80 log; in assay [2] (setting [6]) it was over 5.80 log. Also, the “Microbial Log reduction” value in assay [2] (setting [7]) is reported as over 5.88 log; in assay [2] (setting [8]), over 5.69 log; in assay [2] (setting [9]), over 5.80 log; in assay [2] (setting [10]) it was over 5.80 log.
For the molecule `CC(O)C(=O)O` (stereo not drawn) [Lactic acid, lactic acid], the “Microbial Log reduction” value is over 5.61 log in assay [1] (setting [3]); over 5.56 log in assay [1] (setting [4]); over 5.74 log in assay [1] (setting [5]); over 5.74 log in assay [1] (setting [6]); over 5.61 log in assay [1] (setting [7]); over 5.56 log in assay [1] (setting [8]). The “Microbial Log reduction” value is given as over 5.74 log in assay [1] (setting [9]); over 5.74 log in assay [1] (setting [10]); 3.93 log in assay [2] (setting [3]); over 5.69 log in assay [2] (setting [4]); over 5.80 log in assay [2] (setting [5]); over 5.80 log in assay [2] (setting [6]). In addition, the “Microbial Log reduction” value in assay [2] (setting [7]) is listed as over 5.88 log; in assay [2] (setting [8]), over 5.69 log; in assay [2] (setting [9]), over 5.80 log; in assay [2] (setting [10]), over 5.80 log.
